From PubChem BioAssay (NCI)
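Five concentrations, 48 hours, 96-well plates. TGI denotes the concentration required for complete inhibition of growth.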

What was measured:
Assay in all cases: NCI anticancer screen, dose series, 48 h
UACC-62 melanoma = system: UACC-62 melanoma
OVCAR-8 ovarian = system: OVCAR-8 ovarian
HCT-15 colon = system: HCT-15 colon
EKVX NSCLC = system: EKVX NSCLC
RPMI-8226 leukemia = system: RPMI-8226 leukemia
LOX IMVI melanoma = system: LOX IMVI melanoma
OVCAR-3 ovarian = system: OVCAR-3 ovarian
KM20L2 colon = system: KM20L2 colon
A498 renal = system: A498 renal
HCT-116 colon = system: HCT-116 colon
SW-620 colon = system: SW-620 colon
SNB-75 CNS = system: SNB-75 CNS
COLO 205 colon = system: COLO 205 colon
NCI-H226 lung = system: NCI-H226 lung
RXF-631 renal = system: RXF-631 renal
IGROV1 ovarian = system: IGROV1 ovarian
NCI-H522 lung = system: NCI-H522 lung
HOP-62 NSCLC = system: HOP-62 NSCLC
SK-OV-3 ovarian = system: SK-OV-3 ovarian
A549 NSCLC = system: A549 NSCLC
MOLT-4 leukemia = system: MOLT-4 leukemia
OVCAR-4 ovarian = system: OVCAR-4 ovarian
SF-268 CNS = system: SF-268 CNS
MALME-3M melanoma = system: MALME-3M melanoma
K-562 leukemia = system: K-562 leukemia
CCRF-CEM leukemia = system: CCRF-CEM leukemia
M14 melanoma = system: M14 melanoma
SNB-78 CNS = system: SNB-78 CNS
RXF 393 renal = system: RXF 393 renal
HCC-2998 colon = system: HCC-2998 colon
UACC-257 melanoma = system: UACC-257 melanoma
NCI-H460 lung = system: NCI-H460 lung
SF-295 CNS = system: SF-295 CNS
HL-60(TB) leukemia = system: HL-60(TB) leukemia
LXFL 529 NSCLC = system: LXFL 529 NSCLC
ACHN renal = system: ACHN renal
TK-10 renal = system: TK-10 renal
786-0 renal = system: 786-0 renal
KM12 colon = system: KM12 colon
DMS 114 small cell lung = system: DMS 114 small cell lung
UO-31 renal = system: UO-31 renal
SF-539 CNS = system: SF-539 CNS
OVCAR-5 ovarian = system: OVCAR-5 ovarian
HOP-92 NSCLC = system: HOP-92 NSCLC
CAKI-1 renal = system: CAKI-1 renal
DMS 273 small cell lung = system: DMS 273 small cell lung
M19-MEL melanoma = system: M19-MEL melanoma
SR leukemia = system: SR leukemia
XF 498 CNS = system: XF 498 CNS
SNB-19 CNS = system: SNB-19 CNS
DLD-1 colon = system: DLD-1 colon
SK-MEL-28 melanoma = system: SK-MEL-28 melanoma
NCI-H23 lung = system: NCI-H23 lung
SK-MEL-5 melanoma = system: SK-MEL-5 melanoma
SN12C renal = system: SN12C renal
SK-MEL-2 melanoma = system: SK-MEL-2 melanoma
U251 CNS = system: U251 CNS
HT29 colon = system: HT29 colon
HOP-18 NSCLC = system: HOP-18 NSCLC

## COc1c(OC2OC(CO)C(O)C(O)C2O)cc2c(c1OC)-c1ccc(OC)c(=O)cc1[C@@H](NC(C)=O)CC2 (some centres not stated)
UACC-62 melanoma
  TGI: > 100 µM
OVCAR-8 ovarian
  TGI: > 100 µM
HCT-15 colon
  TGI: > 100 µM
EKVX NSCLC
  TGI: > 100 µM
RPMI-8226 leukemia
  TGI: > 100 µM
LOX IMVI melanoma
  TGI: > 100 µM
OVCAR-3 ovarian
  TGI: > 96.6 µM
KM20L2 colon
  TGI: > 100 µM
A498 renal
  TGI: > 100 µM
HCT-116 colon
  TGI: > 100 µM
SW-620 colon
  TGI: > 100 µM
SNB-75 CNS
  TGI: 84.4 µM
COLO 205 colon
  TGI: > 100 µM
NCI-H226 lung
  TGI: > 100 µM
RXF-631 renal
  TGI: > 100 µM
IGROV1 ovarian
  TGI: > 100 µM
NCI-H522 lung
  TGI: 99.3 µM
HOP-62 NSCLC
  TGI: > 100 µM
SK-OV-3 ovarian
  TGI: > 100 µM
A549 NSCLC
  TGI: > 100 µM
MOLT-4 leukemia
  TGI: > 100 µM
OVCAR-4 ovarian
  TGI: > 100 µM
SF-268 CNS
  TGI: > 56.2 µM
MALME-3M melanoma
  TGI: > 100 µM
K-562 leukemia
  TGI: > 100 µM
CCRF-CEM leukemia
  TGI: > 100 µM
M14 melanoma
  TGI: > 100 µM
SNB-78 CNS
  TGI: > 100 µM
RXF 393 renal
  TGI: > 90.4 µM
HCC-2998 colon
  TGI: > 100 µM
UACC-257 melanoma
  TGI: > 100 µM
NCI-H460 lung
  TGI: > 100 µM
SF-295 CNS
  TGI: > 100 µM
HL-60(TB) leukemia
  TGI: > 100 µM
LXFL 529 NSCLC
  TGI: > 100 µM
ACHN renal
  TGI: > 100 µM
TK-10 renal
  TGI: > 100 µM
786-0 renal
  TGI: > 100 µM
KM12 colon
  TGI: > 100 µM
DMS 114 small cell lung
  TGI: > 97 µM
UO-31 renal
  TGI: > 100 µM
SF-539 CNS
  TGI: > 100 µM
OVCAR-5 ovarian
  TGI: > 100 µM
HOP-92 NSCLC
  TGI: > 100 µM
CAKI-1 renal
  TGI: > 100 µM
DMS 273 small cell lung
  TGI: > 100 µM
M19-MEL melanoma
  TGI: > 100 µM
SR leukemia
  TGI: > 100 µM
XF 498 CNS
  TGI: > 93 µM
SNB-19 CNS
  TGI: > 100 µM
DLD-1 colon
  TGI: > 100 µM
SK-MEL-28 melanoma
  TGI: > 100 µM
NCI-H23 lung
  TGI: > 100 µM
SK-MEL-5 melanoma
  TGI: > 94.5 µM
SN12C renal
  TGI: > 100 µM
SK-MEL-2 melanoma
  TGI: > 100 µM
U251 CNS
  TGI: > 100 µM
HT29 colon
  TGI: > 100 µM
HOP-18 NSCLC
  TGI: > 100 µM

## CCc1cccc(CC)c1NC(=O)C1=CNC(C)=C(C(=O)Nc2c(CC)cccc2CC)C1c1ccc(O)c(OC)c1 (configuration not stated)
OVCAR-8 ovarian
  TGI: > 100 µM
EKVX NSCLC
  TGI: > 100 µM
RPMI-8226 leukemia
  TGI: 45.3 µM
LOX IMVI melanoma
  TGI: > 100 µM
OVCAR-3 ovarian
  TGI: 53.9 µM
KM20L2 colon
  TGI: > 100 µM
A498 renal
  TGI: 76.4 µM
SW-620 colon
  TGI: > 100 µM
SNB-75 CNS
  TGI: > 100 µM
COLO 205 colon
  TGI: > 100 µM
NCI-H226 lung
  TGI: 89.7 µM
RXF-631 renal
  TGI: > 100 µM
IGROV1 ovarian
  TGI: > 100 µM
NCI-H522 lung
  TGI: 77.4 µM
HOP-62 NSCLC
  TGI: 86.8 µM
SK-OV-3 ovarian
  TGI: > 100 µM
A549 NSCLC
  TGI: > 100 µM
MOLT-4 leukemia
  TGI: 82.9 µM
OVCAR-4 ovarian
  TGI: 91.4 µM
SF-268 CNS
  TGI: > 100 µM
MALME-3M melanoma
  TGI: > 100 µM
K-562 leukemia
  TGI: 99.5 µM
CCRF-CEM leukemia
  TGI: 61 µM
M14 melanoma
  TGI: > 100 µM
SNB-78 CNS
  TGI: > 100 µM
RXF 393 renal
  TGI: 93.9 µM
HCC-2998 colon
  TGI: 88.8 µM
UACC-257 melanoma
  TGI: 92.7 µM
NCI-H460 lung
  TGI: 98.8 µM
SF-295 CNS
  TGI: 73.8 µM
HL-60(TB) leukemia
  TGI: 57.4 µM
LXFL 529 NSCLC
  TGI: > 100 µM
ACHN renal
  TGI: > 100 µM
TK-10 renal
  TGI: > 100 µM
786-0 renal
  TGI: > 100 µM
KM12 colon
  TGI: 87.4 µM
DMS 114 small cell lung
  TGI: > 100 µM
UO-31 renal
  TGI: > 100 µM
SF-539 CNS
  TGI: 51.3 µM
OVCAR-5 ovarian
  TGI: > 100 µM
HOP-92 NSCLC
  TGI: > 100 µM
CAKI-1 renal
  TGI: > 100 µM
M19-MEL melanoma
  TGI: > 100 µM
XF 498 CNS
  TGI: 67.3 µM
SNB-19 CNS
  TGI: > 100 µM
DLD-1 colon
  TGI: > 100 µM
SK-MEL-28 melanoma
  TGI: > 100 µM
NCI-H23 lung
  TGI: > 100 µM
SK-MEL-5 melanoma
  TGI: > 100 µM
SN12C renal
  TGI: > 100 µM
SK-MEL-2 melanoma
  TGI: 91.8 µM
U251 CNS
  TGI: > 100 µM
HT29 colon
  TGI: 80.2 µM
